Measurements published in US20080280953A1, “Agents Used for the Treatment of Seeds” (Bayer Cropscience AG, priority 2004, published 2008).

Experiments:
Format in all cases: in vivo
[1] = tested on: horse chestnut scale (Pulvinaria regalis); assay: Pulvinaria regalis test, preparation poured onto chestnut trees (Example C1); settings: 10 mg per plant, poured on
Experimental: (§1) To prepare a suitable active compound preparation 1 part by weight of the active compound is mixed with the given amount of solvent and emulsifier and the concentrate is diluted to the desired concentration with water.
The active compound preparation was poured onto chestnut trees (Castanea vesca). The concentration given relates to the amount of active compound per plant. After a defined time infection was carried out with horse chestnut scale (Pulvinaria regalis).
(§2) After the desired time the death rate in % is determined. Here 100% means that all animals were killed; 0% means that no animals were killed.

[2] = tested on: cotton aphid (Aphis gossypii); assay: Aphis gossypii test (soil application); settings: 4 ppm in soil, cotton plant
Experimental: as §1
The active compound mixture was mixed with soil. The concentration given refers to amount of active compound per volume unit of soil (mg/l=ppm). Pots are filled with the treated earth and planted with a cotton plant (Gossypium hirsutum). After one week the plants are infected with the cotton aphid (Aphis gossypii).
(§3) After the desired time the death rate in % is determined. Here 100% means that all aphids were killed; 0% means that no aphids were killed.

[3] = tested on: adult Musca domestica, strain WHO(N), sensitive; assay: Test with flies; settings: 100 ppm; after 48 hours
Experimental: 10 mg of the active compound are dissolved in 0.5 ml dimethylsulphoxide, lower concentrations are prepared by dilution with water.
0.2 ml of this active compound preparation is pipetted onto a sponge (ca. Ø1.5 cm) that has been wetted with 0.8 ml sugar solution. The sponge and 10 test animals are transferred to a dish (4×4 cm, h 2 cm) and covered.
After 48 hours the activity of the active compound preparation is determined. Here 100% means that all flies were killed; 0% means that no flies were killed.

[4] = tested on: larvae of the Colorado beetle (Leptinotarsa decemlineata); assay: Leptinotarsa decemlineata larvae test, spraying of potato leaves; settings: 60 g ai/ha, spray on potato leaves
Experimental: (§4) To prepare a suitable active compound preparation 1 part by weight of the active compound is mixed with the given amount of solvent and emulsifier and the concentrate is diluted to the desired concentration with water containing emulsifier.
Leaves of potato plants (Solanum tuberosum) that are infested with the larvae of the Colorado beetle (Leptinotarsa decemlineata) are treated by spraying with the active compound preparation at the desired concentration.
After the desired time the activity in % is determined. Here 100% means that all beetle larvae were killed; 0% means that no beetle larvae were killed.

[5] = tested on: white fly (Bemisia tabaci) eggs and larvae; assay: Bemisia tabaci test, treated soil (Example Z); settings: 4 ppm in soil, cotton plant
Experimental: as §1
The active compound preparation is mixed with earth. The concentration given relates to the amount of active compound per volume unit soil (mg/l=ppm). The treated earth is filled into pots and planted with a cotton plant (Gossypium hirsutum). After a week infection is carried out with white fly (Bemisia tabaci) for egg deposition.
After the desired time the death rate of eggs and larvae, respectively, in % is determined. Here 100% means that all animals were killed; 0% means that no animals that were killed.

[6] = tested on: white fly (Bemisia tabaci, resistant strain); assay: Bemisia tabaci test (resistant strain), cotton leaf dip; settings: 1000 ppm
Experimental: as §4
Leaf sections of the cotton plant (Gossypium hirsutum) are treated by dipping in the active compound preparation at the desired concentration and after drying of the coating are infected with adults of the white fly (Bemisia tabaci, resistant strain).
as §2

[7] = tested on: adults of the green stink bug (Piezodorus guildingi); assay: Piezodorus guildingi test, open land (spray treatment); settings: 300 g/ha, soy bean plants
Experimental: (§5) To prepare a suitable active compound preparation 1 part by weight of the active compound is mixed with the given amount of water to the desired concentration.
Soy bean plants (Glycine max) infested with the adults of the green stink bug (Piezodorus guildingi) are treated with an active compound preparation at the desired concentration.
After the desired time the death rate in % is determined. Here 100% means that all bugs were killed; 0% means that no bugs were killed.

[8] = tested on: mealy cabbage aphid (Brevicoryne brassicae); assay: Brevicoryne brassicae test, open land (spray treatment), Example J1; settings: 300 g/ha, spray on cabbage plants
Experimental: as §5
Cabbage plants (Brassica oleracea) that are infested with all stages of the mealy cabbage aphid (Brevicoryne brassicae) are sprayed with an active compound preparation at the desired concentration.
as §3

Lucilia cuprina larvae = assay: Fly larvae test; settings: 100 ppm
Experimental: 10 mg active compound were dissolved in 0.5 ml dimethylsulphoxide. To prepare a suitable formulation the active compound solution is diluted with water to the respective desired concentration.
About 20 Lucilia cuprina larvae are placed in a test tube that contains ca. 1 cm^3 horse flesh and 0.5 ml of the active compound preparation under test.
After the desired time the death rate in % is determined. Here 100% means that all larvae were killed; 0% means that no larvae were killed.

[9] = tested on: adult Ctenocephalides felis, strain "Georgi"; assay: Test with cat fleas/oral administration; settings: 100 ppm in citrated bovine blood
Experimental: To prepare a suitable formulation a suitable active compound solution was prepared from 10 mg active compound with 0.5 ml DMSO. 10 μl of this formulation was added to 2 ml citrated bovine blood and stirred.
20 fasting adult fleas (Ctenocephalides felis, strain “Georgi”) were placed in a chamber (Ø5 cm) that is closed with cheese cloth at the top and bottom. A metal cylinder the underside of which is closed with Parafilm is placed on the chamber. The cylinder contains the 2 ml blood-active compound formulation which can be consumed by the fleas through the Parafilm membrane.
Whilst the blood is warmed to 37° C. the region of the flea chamber is at room temperature. Controls were carried out with the same volume of DMSO without compound addition.
After the desired time the death rate in % is determined. Here 100% means that all fleas were killed; 0% means that no fleas were killed.

[10] = tested on: mixed thrips population (Frankliniella occidentalis); assay: Frankliniella occidentalis test, spraying of cotton plants; settings: 100 ppm, spray on cotton plants
Experimental: as §4
Cotton plants (Gossypium hirsutum) are treated by spraying with the active compound preparation at the desired concentration and infected with a mixed thrips population (Frankliniella occidentalis).
After the desired time the activity in % is determined. Here 100% means that all thrips were killed; 0% means that no thrips were killed.

[11] = tested on: white fly (Bemisia tabaci), normal sensitive strain; assay: Bemisia tabaci test (normal sensitive strain), spraying of infested cotton plants; settings: 100 ppm, spray on cotton plants
Experimental: as §4
Cotton plants (Gossypium hirsutum) that are infested with eggs, larvae and pupae of the white fly (Bemisia tabaci) are treated by, spraying with the active compound preparation at the desired concentration.
as §2

[12] = tested on: caterpillars of the fall army worm (Spodoptera frugiperda); assay: Spodoptera frugiperda test, treated soil (Example A1); settings: 4 ppm in soil, cotton plant
Experimental: as §1
The active compound preparation is mixed with earth. The concentration given relates to the amount of active compound per unit volume soil (mg/l=ppm). The treated earth is filled into pots and planted with a cotton plant (Gossypium hirsutum). After a week infection is carried out with caterpillars of the fall army worm (Spodoptera frugiperda).
After the desired time the activity in % is determined. Here 100% means that no eating damage is visible, 0% means that eating damage on the treated plants corresponds to that of the controls.

Compound | death rate after 30 days [1] [%] | Activity in % after 7 d [2] [%] | activity [3] [%] | Activity in % after 6 d [4] [%] | death rate after 14 days [5] [%] | Death rate in % after 3 d [6] [%] | death rate after 11 days [7] [%] | death rate after 22 days [8] [%] | death rate after 2 days (Lucilia cuprina larvae) [%] | death rate after 2 days [9] [%] | Activity in % after 14 d [10] [%] | Death rate in % after 14 d [11] [%] | activity (eating damage) after 7 days [12] [%]
CN(Cc1ccc(Cl)nc1)C1=CC(=O)OC1 [Compound 84] | 100 | 100 | 80 | 100 | 100 | 78 | 100 | 99 | 100 | 100 | 99 | 100 | 98
O=C1C=C(N(Cc2ccc(Cl)nc2)C2CC2)CO1 [Compound 88] | – | 100 | – | 100 | 100 | – | – | 99 | 100 | – | 99 | – | –
